Measured values taken from US7129346B2, “Crown ether derivatives” (Molecular Probes, Inc., priority 2000, dated 2006).
“Also recorded” adds a separate entry of the source.

Key:
[1] = Indicator fluorescence response titration, dissociation constant for Rb+; assay type: binding; conditions: Table 2, Formula (II) compounds, in solution
Procedure: (§1) The fluorescence response of a selected compound of the invention as a function of ion concentration was determined by dissolving a sample of the pure compound in 3 mL of each of two solutions: solution 1 (“high”) consists of 200 mM NaCl (or other appropriate ion) and 10 mM MOPS buffer at pH 7.05; solution 2 (“zero”) consists of 10 mM MOPS buffer at pH 7.05 in deionized water. […]. A least-squares fit was used to arrive at the concentration where the selected indicator was maximally sensitive to changes in Na^+ concentration. This corresponded to the dissociation constant of that indicator for Na^+ and was expressed as a concentration.
(§2) This methodology was repeated for K+, Li+ and Tb+ to obtain emission spectra and to calculate the Kd values. See, Table 2 and FIG. 4
(§3) For visible wavelength probes such as Compound 22 (Example 17), Compound 27 (Example 22) and Compound 86 (Example 79) the indicator's fluorescence emission was typically scanned from 450–650 nm while the sample was excited at the absorption maximum wavelength. For UV-excitable ratiometric probes such as Compound 51 (Example 46), the excitation wavelengths of the dye in solution 2 were scanned from 260 to 450 nm while monitoring constant fluorescence emission at 510 nm (as in FIG. 1).

[2] = Indicator fluorescence response titration, dissociation constant for Li+; assay type: binding; conditions: Table 2, Formula (II) compounds, in solution
Procedure: as §1, §2, §3

[3] = Indicator fluorescence response titration, dissociation constant for K+; assay type: binding
Procedure: The fluorescence response of a selected compound of the invention as a function of ion concentration was determined by dissolving a sample of the pure compound in 3 mL of each of two solutions: solution 1 (“high”) consists of 200 mM NaCl (or other appropriate ion) and 10 mM MOPS buffer at pH 7.05; solution 2 (“zero”) consists of 10 mM MOPS buffer at pH 7.05 in deionized water. A series of curves are generated by cross dilution between the two solutions to arrive at intermediate concentrations of Na+, K+, Li+ and Tb+. The emission of a selected indicator in solution 2 was scanned and then was repeated to cover the entire range from zero to 200 mM Na^+. For example, the fluorescence emission of the chosen indicator was scanned while the sample was excited at that indicator's absorption maximum wavelength, and then 1/100 of the sample was removed and replaced with 1/100 of solution 1 to arrive at a Na^+ concentration of 2 mM. This dilution was repeated to cover the entire range from zero to […] Na^+ and the resulting emission intensities were plotted versus the ion concentrations. A least-squares fit was used to arrive at the concentration where the selected indicator was maximally sensitive to changes in Na^+ concentration. This corresponded to the dissociation constant of that indicator for Na^+ and was expressed as a concentration.
as §2, §3

[4] = Indicator fluorescence response titration, dissociation constant for Na+; assay type: binding
Procedure: as §1, §2
as §3, with “1). […]” for “1).”

[5] = tested on: Jurkat cells; test: Calibration of sodium indicator fluorescence response in cells (flow cytometry); assay type: cell-based; conditions: 2 μM gramicidin, extracellular Na+ 0-145 mM, excitation 488 nm; for Intracellular fluorescence response to increasing intracellular Na^+ concentration: Jurkat cells, 5 μM Compound 25 or 10 μM Compound 87
Procedure: Jurkat cells were loaded with a 5 μM solution of either Compound 25 (Example 20), or commercially available SODIUM GREEN tetraacetate indicator (Molecular Probes, Inc., Eugene, Oreg.) and 10 μM for Compound 87 (Example 80) for 30 minutes at 37° C. The use of PLURONIC dispersing agent helped dissolve the selected indicator. Intracellular sodium concentrations were then established by varying the sodium concentration of the extracellular buffer in the presence of 2 μM gramicidin (a sodium-pore forming antibiotic). The extracellular buffer was set at 0 mM, 10 mM, 20 mM, 50 mM, 100 mM, and 145 mM, respectively. Intracellular fluorescence response of the selected indicators was measured using a FACSCAN flow cytometer and associated software, with fluorescence excitation at 488 nm.

[6] = Indicator fluorescence response titration, dissociation constant for Zn2+; assay type: binding; conditions: Table 1, Formula (I) compounds; approximate values; read-out: Dissociation Constant (target ion) Kd (Zn^2+)
Procedure: as §1

[7] = Indicator fluorescence response titration, dissociation constant for Ca2+; assay type: binding; conditions: Table 1, Formula (I) compounds, read-out: Dissociation Constant (target ion) Kd (Ca^2+)
Procedure: as §1

[8] = Table 2, Formula (II) compounds, in solution
[9] = Table 2, Formula (II) compounds, in solution, 10 mM MOPS pH 7.05, read-out: Dissociation constant Kd (Na^+)
[10] = Table 1, Formula (I) compounds, approximate values, read-out: Dissociation Constant (target ion) Kd (Na^+)

**Q.** Which “Response to complexation (R = F/F0), R (Rb^+)” value [1] does the source give for `COC(=O)CN1CCOCCOCCOCCOc2cc(-c3c4cc(F)c(=O)cc-4oc4cc(O)c(F)cc34)ccc21` [Compound 86] here?
**A.** 2.7

**Q.** What about the “Response to complexation (R = F/F0), R (Li^+)” value [2] of the same compound?
**A.** 6.8

**Q.** And the “Response to complexation (R = F/F0), R (K^+)” value [3, 8]?
**A.** 6.9

**Q.** What about the “Response to complexation (R = F/F0), R (Na^+)” value (“Response … (Na^+)” below) [4, 8] of the same compound?
**A.** 28.5

**Q.** What about the Kd [4, 9] of the same compound?
**A.** 82 mM

**Q.** Which “Intracellular fluorescence response to increasing intracellular Na^+ concentration” value [5] does the source give for `COC(=O)CN1CCOCCOCCOCCOc2cc(-c3c4cc(F)c(=O)cc-4oc4cc(OCOC(C)=O)c(F)cc34)ccc21` [Compound 87] here?
**A.** increased fluorescent signal with increasing concentrations of sodium ions

**Q.** For `COCCN1CCOCCOCCOCCOc2cc(-c3c4cc(F)c(=O)cc-4oc4cc(O)c(F)cc34)ccc21` [Compound 115], which “Response to complexation (R = F/F0), R (K^+)” value [3, 8] is on record?
**A.** 2.8

**Q.** And the “Response … (Na^+)” value [4, 8]?
**A.** 5.9

**Q.** What about the Kd [4, 9] of the same compound?
**A.** 78.8 mM

**Q.** Which results are given for `COC(=O)CN1CCOCCN(CC(=O)OC)c2ccc(-c3cc4ccc(C(=O)OC)cc4[nH]3)cc2OCCOc2cc(C)ccc21`?
**A.** Kd ([3]; Table 1, Formula (I) compounds, approximate value printed in nM, read-out: Dissociation Constant (target ion) Kd (K^+)): ~115 nM; Kd [4, 10]: ~30 mM

**Q.** Which Kd [4, 10] does the source give for `CCCCCCCCCCCCCCCCCCNC(=O)COc1cc2c(cc1-c1c3ccc(=[N+](C)C)cc-3oc3cc(N(C)C)ccc13)OCCOc1cc(C)ccc1N(CC(=O)OC)CCOCCN2CC(=O)OC` here?
**A.** ~14 mM

**Q.** With `Cc1ccc2c(c1)OCCOc1cc(-c3c4ccc(=[N+](C)C)cc-4oc4cc(N(C)C)ccc34)c(OCC(=O)O)cc1N(CC(=O)O)CCOCCN2CC(=O)O` as the compound, how does the Kd [6] read?
**A.** ~0.0001 mM

**Q.** And the Kd [4, 10]?
**A.** ~70 mM

**Q.** For `Cc1ccc2c(c1)OCCOc1cc(-c3c4cc(F)c(=O)cc-4oc4cc(O)c(F)cc34)ccc1N(CC(=O)O)CCOCCN2CC(=O)O`, which Kd ([7]; approximate values) is on record?
**A.** ~0.005 mM

**Q.** And the Kd [6]?
**A.** ~0.0003 mM

**Q.** What about the Kd [4, 10] of the same compound?
**A.** ~36 mM

**Q.** For `COC(=O)CN1CCOCCN(CC(=O)OC)c2cc(OCC(=O)NC(CC(=O)O)C(=O)[O-])c(-c3c4ccc(=[N+](C)C)cc-4oc4cc(N(C)C)ccc34)cc2OCCOc2cc(C)ccc21` (centres unmarked), which Kd [4, 10] is on record?
**A.** ~85 mM

**Q.** For `Cc1ccc2c(c1)OCCOc1cc(C3=c4cc5c6c(c4Oc4c3cc3c7c4CCCN7CCC3)CCC[N+]=6CCC5)ccc1N(CC(=O)O)CCOCCN2CC(=O)[O-]`, which Kd ([7]; approximate values) is on record?
**A.** ~0.007 mM

**Q.** And the Kd [6]?
**A.** ~0.008 mM

**Q.** Which Kd [6] does the source give for `Cc1ccc2c(c1)OCCOc1cc(-c3c4ccc(=[N+](C)C)cc-4oc4cc(N(C)C)ccc34)ccc1N(CC(N)=O)CCOCCN2CC(N)=O` here?
**A.** ~0.65 mM

**Q.** Which “Response … (Na^+)” value [4, 8] does the source give for `O=C([O-])CN1CCOCCOCCOCCOc2cc(-c3c4cc(F)c(=O)cc-4oc4cc(O)c(F)cc34)ccc21.[K+]` [Compound 127] here?
**A.** 3.6

**Q.** And the Kd [4, 9]?
**A.** 20 mM

**Q.** For `COCCN1CCOCCOCCOCCOc2cc(-c3cc4ccc(C(=O)OC)cc4[nH]3)ccc21` [Compound 120], which “Response … (Na^+)” value [4, 8] is on record?
**A.** 2

**Q.** And the Kd [4, 9]?
**A.** 89 mM

**Q.** Which Kd [4, 10] does the source give for `COC(=O)CN1CCOCCN(CC(=O)OC)c2cc3oc(-c4ncc(C(=O)O)o4)cc3cc2OCCOc2cc(C)ccc21` here?
**A.** ~52 mM

**Q.** For `Cc1ccc2c(c1)OCCOc1cc(-c3c4cc(F)c(=O)cc-4oc4cc(O)c(F)cc34)ccc1N(CC(N)=O)CCOCCN2CC(N)=O`, which Kd [6] is on record?
**A.** ~0.6 mM

**Q.** With `COC(=O)CN1CCOCCN(CC(=O)OC)c2cc(OCC(=O)[O-])c(-c3c4ccc(=[N+](C)C)cc-4oc4cc(N(C)C)ccc34)cc2OCCOc2cc(C)ccc21` as the compound, how does the Kd [4, 10] read?
**A.** ~92 mM

**Q.** With `COC(=O)OCOC(=O)CN1CCOCCN(CC(=O)OCOC(C)=O)c2ccc(C)cc2OCCOc2cc(C3=C4C=C(F)C(O)C=C4Oc4cc(OCOC(C)=O)c(F)cc43)ccc21` (centres unmarked) [Compound 25] as the compound, how does the “Intracellular fluorescence intensity compared with SODIUM GREEN indicator” value ([5]; Jurkat cells loaded with 5 μM for 30 minutes at 37° C., FIG. 3) read?
**A.** stronger fluorescence intensity than SODIUM GREEN sodium indicator; also recorded: substantially brighter intracellular fluorescence intensity than the SODIUM GREEN indicator

**Q.** And the “Intracellular fluorescence response to increasing intracellular Na^+ concentration” value [5]?
**A.** consistent increase in fluorescence intensity

**Q.** Which Kd [4, 10] does the source give for `COC(=O)CN1CCOCCN(CC(=O)OC)c2cc(OCC(=O)O)c(-c3cc4ccc(C(=O)OC)cc4[nH]3)cc2OCCOc2cc(C)ccc21` here?
**A.** ~52 mM

**Q.** With `COC(=O)CN1CCOCCOCCOCCOc2cc(-c3cc4ccc(C(=O)OC)cc4[nH]3)ccc21` [Compound 93] as the compound, how does the “Dissociation constant Kd (K^+)” value ([3]; Table 2, Formula (II) compounds, in solution, 10 mM MOPS pH 7.05) read?
**A.** Kd (K^+) = no sensitivity

**Q.** And the “Response … (Na^+)” value [4, 8]?
**A.** 25

**Q.** What about the Kd [4, 9] of the same compound?
**A.** 89 mM

**Q.** With `COC(=O)CN1CCOCCN(CC(=O)OC)c2ccc(-c3c4cc(F)c(=O)cc-4oc4cc(O)c(F)cc34)cc2OCCOc2cc(C)ccc21` as the compound, how does the Kd [4, 10] read?
**A.** ~60 mM

**Q.** Which Kd [4, 10] does the source give for `COC(=O)CN1CCOCCN(CC(=O)OC)c2ccc(-c3c4ccc(=[N+](C)C)cc-4oc4cc(N(C)C)ccc34)cc2OCCOc2cc(C)ccc21` here?
**A.** ~95 mM

**Q.** Which results are given for `Cc1ccc2c(c1)OCCOc1cc(-c3c4ccc(=[N+](C)C)cc-4oc4cc(N(C)C)ccc34)ccc1N(CC(=O)O)CCOCCN2CC(=O)[O-]`?
**A.** Kd ([7]; approximate values): ~0.004 mM; Kd [6]: ~0.0003 mM; Kd [4, 10]: ~38 mM

**Q.** With `COC(=O)c1ccc2cc(-c3ccc4c(c3)OCCOCCOCCOCCN4CCN(C)C)[nH]c2c1` [Compound 126] as the compound, how does the “Response … (Na^+)” value [4, 8] read?
**A.** −1.2

**Q.** With `Cc1ccc2c(c1)OCCOc1cc3cc(-c4ncc(C(=O)O)o4)oc3cc1N(CC(=O)O)CCOCCN2CC(=O)O` as the compound, how does the Kd ([7]; approximate value) read?
**A.** ~0.0004 mM
